These results are taken from patent US4999042A, “Phenyl oximino-acetate fungicides” (Imperial Chemical Industries PLC, priority 1986, dated 1991).

Format in all cases: in vivo
Data set [1] concerns Venturia inaequalis (apple). Put plainly: Foliar fungal disease control, Venturia inaequalis on apple. Particulars: 100 ppm foliar spray plus root drench approx. 40 ppm a.i./dry soil, 1-2 days before inoculation.
For data set [2], the system named is Pyricularia oryzae (rice). Particulars: 100 ppm foliar spray plus root drench approx. 40 ppm a.i./dry soil, 1-2 days before inoculation.
Another data set deals with Apple (AP). Put plainly: Plant growth regulating whole plant screen, apple. Particulars: 4000 ppm (4 kg/ha) spray, visual score after 2-6 weeks. The method, then:
(§1) This Example illustrates the plant growth regulating properties of compounds 1, 2, 5 and 12-15 of Table I when tested on a whole plant screen against two species of plant. The plant species are identified in Table IV with the leaf stage at which they were sprayed.
(§2) A formulation of each chemical was applied at 4000 ppm (4 kg/ha in a 1000 1/ha field volume) using a tracksprayer and a SS8004E (Teejet) nozzle.
(§3) After spraying, the plants were grown in a glasshouse with 25° C. day/22° C. night temperatures. Supplementary lighting was supplied when necessary to provide an average photoperiod of 16 hours (14 hours minimum).
(§4) After 2-6 weeks in the glasshouse, depending on species and time of year, the plants were visually assessed for morphological characteristics against a control plant sprayed with a blank formulation.

For data set [3], the system named is Cercospora arachidicola (peanut). Put plainly: Foliar fungal disease control, Cercospora arachidicola on peanut. Particulars: 100 ppm foliar spray plus root drench approx. 40 ppm a.i./dry soil, 1-2 days before inoculation.
In data set [4] the test system is Plasmopara viticola (vine). Briefly: Foliar fungal disease control, Plasmopara viticola on vine. Particulars: 100 ppm foliar spray plus root drench approx. 40 ppm a.i./dry soil, 1-2 days before inoculation.
The next data set concerns Maize (MZ). Briefly: Plant growth regulating whole plant screen, maize. Particulars: 4000 ppm (4 kg/ha) spray; for A = Apical damage / I = Interligular or internodal length reduction / R = Retardation: visual score after 2-6 weeks. As for the experimental part: as §1, §2, §3, §4
The subject of data set [5] is Erysiphe graminis hordei (barley). Briefly: Foliar fungal disease control, Erysiphe graminis hordei on barley. Particulars: 100 ppm foliar spray plus root drench approx. 40 ppm a.i./dry soil, inoculated 24 hours before treatment.
Data set [6] concerns Puccinia recondita (wheat). Put plainly: Foliar fungal disease control, Puccinia recondita on wheat. Particulars: 100 ppm foliar spray plus root drench approx. 40 ppm a.i./dry soil, 1-2 days before inoculation.

Take `CON=C(C(=O)OC)c1ccccc1/C=C/c1ccccc1` (single isomer, unassigned) [Compound 2, methyl O-methyl (2-(E)-styrylphenyl)oximino-acetate]: the “disease control grading, VENTURIA INAEQUALIS (APPLE)” value in data set [1] amounted to 4. Also, the “disease control grading, P[…] (RICE)” value in data set [2] was 0 (60-100% of disease on untreated plants). Also, in the data set on Apple (AP), the “G = Greening effect” value is 1 (10-30%), the “I = Interligular or internodal length reduction” value is recorded as 1 (10-30%) and the “R = Retardation” value was 2 (31-60%). The “disease control grading, CERCOSPORA ARACHIDICOLA (PEANUT)” value in data set [3] is listed as 0 (60-100% of disease on untreated plants). In addition, the “disease control grading, PLASMOPARA VITICOLA (VINE)” value in data set [4] stood at 4. Further, in the data set with Maize (MZ), the “A = Apical damage” value is reported as 2 (31-60%), the “I = Interligular or internodal length reduction” value is 2 (31-60%) and the “R = Retardation” value is reported as 2 (31-60%). Besides, the “disease control grading, ERYSIPHE GRAMINIS HORDEI (BARLEY)” value in data set [5] is reported as 0 (60-100% of disease on untreated plants). Moreover, the “disease control grading, PUCCINIA RECONDITA (WHEAT)” value in data set [6] is 2 (6-25% of disease on untreated plants).

Turning to `CO/N=C(\C(=O)OC)c1ccccc1Oc1ccccc1` [Compound 5, methyl O-methyl(2-phenoxyphenyl)oximino-acetate], the “disease control grading, VENTURIA INAEQUALIS (APPLE)” value in data set [1] is 3 (trace - 5% of disease on untreated plants). In addition, the “disease control grading, P[…] (RICE)” value in data set [2] was 1 (26-59% of disease on untreated plants). In data set [3], the “disease control grading, CERCOSPORA ARACHIDICOLA (PEANUT)” value is reported as 0 (60-100% of disease on untreated plants). In addition, in data set [4], the “disease control grading, PLASMOPARA VITICOLA (VINE)” value is recorded as 0 (60-100% of disease on untreated plants). The “P = Phytotoxicity” value with Maize (MZ) (after 2-6 weeks) is reported as 1 (less than 10%). Also, in the data set with Maize (MZ), the “A = Apical damage” value is on record as 3 (61-100%), the “I = Interligular or internodal length reduction” value is on record as 3 (61-100%) and the “R = Retardation” value is 3 (61-100%). Further, the “disease control grading, ERYSIPHE GRAMINIS HORDEI (BARLEY)” value in data set [5] was 3 (trace - 5% of disease on untreated plants). Also, the “disease control grading, PUCCINIA RECONDITA (WHEAT)” value in data set [6] was 0 (60-100% of disease on untreated plants).
